The record followed here is article PMC3013379 (Bioorganic & Medicinal Chemistry Letters, 2011).

The test system of experiment [1] is NF-κB activation induced by TNF-α in HEK293 cells (293/NFκB-luc). The experiment is classed as cell-based. The note with it: HEK293 NF-κB luciferase reporter cells, 2 ng/ml TNF-α for 6 h. A general note: A reporter such as luciferase makes a cellular process visible.
In the next experiment the target is T1, human recombinant IKK-β (Homo sapiens, UniProt O14920).
T1 sequence (O14920 1-756): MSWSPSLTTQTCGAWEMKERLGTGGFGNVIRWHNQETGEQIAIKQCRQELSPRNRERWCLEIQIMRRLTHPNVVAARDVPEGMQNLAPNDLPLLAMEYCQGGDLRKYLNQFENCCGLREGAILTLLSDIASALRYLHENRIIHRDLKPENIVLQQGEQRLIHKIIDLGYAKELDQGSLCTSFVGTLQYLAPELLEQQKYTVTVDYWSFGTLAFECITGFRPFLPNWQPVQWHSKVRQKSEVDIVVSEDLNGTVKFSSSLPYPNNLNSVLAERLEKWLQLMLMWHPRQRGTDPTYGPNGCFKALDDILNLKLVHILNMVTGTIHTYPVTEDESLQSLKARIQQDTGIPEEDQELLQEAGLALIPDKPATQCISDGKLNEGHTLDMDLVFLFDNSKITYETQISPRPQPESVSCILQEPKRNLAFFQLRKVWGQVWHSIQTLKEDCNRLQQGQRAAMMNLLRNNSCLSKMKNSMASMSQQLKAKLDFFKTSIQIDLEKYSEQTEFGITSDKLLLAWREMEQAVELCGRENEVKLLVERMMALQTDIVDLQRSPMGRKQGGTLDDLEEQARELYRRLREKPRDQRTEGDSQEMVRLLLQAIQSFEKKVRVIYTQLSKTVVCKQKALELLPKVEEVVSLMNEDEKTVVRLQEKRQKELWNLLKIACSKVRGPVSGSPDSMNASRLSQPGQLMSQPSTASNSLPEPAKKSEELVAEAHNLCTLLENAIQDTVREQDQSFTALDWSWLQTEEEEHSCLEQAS
The experiment is described as follows: ELISA-based. It is filed as biochemical. (ELISA stands for enzyme-linked immunosorbent assay.)

As to `NC(=O)Nc1sc(-c2ccc(F)cc2)cc1C(N)=O` [IKK-β inhibitor IV, reference compound], the “Effect on TNF-α-induced luciferase activity (in words)” value in experiment [1] is given as “inhibited TNF-α-induced luciferase activity dose-dependently”.

As to `O=C(OCCC12CC3CC(CC(C3)C1)C2)c1ccc(NCc2cc(O)ccc2O)cc1` [Compound 8, 2-(1-adamantyl)ethyl 4-[(2,5-dihydroxyphenyl)methylamino]benzoate], the IC50 on human recombinant IKK-β amounted to 6.95 ± 0.55 µM. For the same molecule, in experiment [1], the “Effect on TNF-α-induced luciferase activity (in words)” value is “inhibited TNF-α-induced luciferase activity dose-dependently”.

As usually defined, the IC50 is the midpoint of a concentration-inhibition curve.
